# From US12447145B2, “Compositions and methods for treating inflammatory neurological disorders” (Georgetown University, priority 2018, dated 2025)
# What was measured:
# EAE mice = assay: Experimental autoimmune encephalomyelitis (EAE) mouse model, clinical scoring; type: in vivo, C57BL/6 female mice
# Source text: C57BL/6 female mice (Charles River) at age 10-12 weeks were acclimatized for 7 days prior to inducing experimental autoimmune encephalomyelitis (EAE). EAE was induced using the EAE kit (Hooke Laboratories, Cat. No: EK-2110) according to the Hooke Laboratories protocol (on the world wide web at hookelabs.com/protocols/eaeAI_C57BL6.html). Briefly, mice were immunized by an emulsion of MOG35-55 in complete Freund's adjuvant (CFA) injected subcutaneously at two sites (Day 0), followed by administration of pertussis toxin (PTX) intraperitoneally, first on the day of immunization (Day 0), and then again the following day (Day 1). Approximately 115 ng of PTX for each of the two PTX administrations were used.
# The mice were scored blindly and daily from EAE Day 7 until at least EAE Day 30 according to the protocol from Hooke Laboratories. The scoring system used was as follows: 0.0=no obvious changes in motor function; 0.5=tip of tail is limp; 1.0=limp tail; 1.5=limp tail and hind leg inhibition; 2.0=limp tail and weakness of hind legs or signs of head tilting; 2.5=limp tail and dragging of hind legs or strong head tilting; 3.0=limp tail and complete paralysis of hind legs or limp tail with paralysis of one front and one hind leg; 3.5=limp tail and complete paralysis of hind legs plus mouse unable to right itself when placed on its side; 4.0=limp tail, complete hind leg and partial front leg paralysis, mouse is minimally moving but appears alert and feeding; 4.5=complete hind and partial front leg paralysis, no movement around the cage, mouse is not alert; 5.0=mouse is found dead due to paralysis or mouse is euthanized due to severe paralysis
# The clinical scores and weight of mice were recorded daily until the end of experiment. […] For each experiment, 8 to 10 mice from each group were analyzed.
# EAE mice were treated with L-type amino acid transporter 1 (LAT1) inhibitor JPH203 dihydrochloride starting at scores 1.0 and 3.0. […] Clinical scores of the animals from each group were recorded at 1-7 days after the first injection.
# [1] = test system: CNS lesions (lysolecithin-induced focal demyelination); assay: Lysolecithin-induced focal demyelination of the spinal cord, immunohistochemistry of lesions; type: in vivo, mice
# Experimental: Focal demyelination was induced by injecting 1% lysolecithin (Sigma-Aldrich) into the spinal cord ventral funiculus of 8-12 weeks old C57B1/6 mice of either sex. At 5 and 10 days post lesion (dpl), mice were perfused intracardially with 4% (w/v) paraformaldehyde (PFA; Sigma). To perform IHC, mice were perfusion-fixed with 4% PFA (Sigma). Spinal cords were dissected and postfixed for 30 min in 4% PFA at 4° C. and cryoprotected in 20% (w/v) sucrose (Sigma) in PBS overnight before freezing in O.C.T. on the surface of dry ice. Twelve-micrometer-thick spinal cord sections were cut using cryostat (Leica CM1900), collected on SuperFrostPlus slides (VWR International), and allowed to dry for 30 min before storing at −80° C. For IHC, sections were incubated in blocking solution (0.1% Triton™ X-100 and 10% FBS in PBS) for 1 h at room temperature (RT). Primary antibodies were diluted in blocking solution and applied overnight at 4° C. Fluorescent dye-conjugated secondary antibodies were obtained from Life Technologies and used according to the manufacturer's instruction. Focal demyelination was induced by injecting 1% lysolecithin, JPH203 or PBS control was injected via intraperitoneal from 5-9 dpl. Mice were sacrificed at 10 dpl by intracardial perfusion with 4% PFA (Sigma). IHC was performed as previously described. Twelve-micrometer-thick fixed spinal cord sections were cut using cryostat (Leica CM1900), collected on SuperFrostPlus slides (VWR International), and allowed to dry for 30 min before storing at −80° C. For IHC, sections were incubated in blocking solution (0.1% Triton™ X-100 and 10% FBS in PBS) for 1 h at room temperature (RT). Primary antibodies were diluted in blocking solution and applied overnight at 4° C. Sources and dilutions of primary antibodies were as follows: rabbit anti-Olig2 (1:300; Millipore), mouse anti-CC1 (1:200; Sigma). Fluorescent dye-conjugated secondary antibodies were obtained from Life Technologies and used according to the manufacturer's instruction. Antigen retrieval was used for Olig2 and mouse on mouse antigen retrieval with M.O.M.™ kit (Vector Laboratories) for CC1. DAPI nuclear counterstain was used before mounting sections with fluoromount-G (Southern-Biotech). ImageJ (NIH) was used to quantify Olig2+ CC1+ cells.
structure (smiles),measurement,setting,value
"Nc1cc(COc2c(Cl)cc(C[C@H](N)C(=O)O)cc2Cl)c2oc(-c3ccccc3)nc2c1 [JPH203, (S)-2-Amino-3-(4-((5-amino-2-phenylbenzo[d]oxazol-7-yl)methoxy)-3,5-dichlorophenyl) propanoic acid]",progression of EAE to higher scores,"EAE mice; prophylactic treatment starting at score 1.0, PBS controls progressed to score 3.0 or higher, FIG. 2B",prevented progression of EAE to higher scores
same,"motor recovery (clinical score), prophylactic efficacy","EAE mice; treatment starting at clinical score 1.0, 25 mg/kg intraperitoneal daily for 5 days, compared to PBS control, FIG. 2B",motor recovery
same,"motor recovery (clinical score), treatment efficacy","EAE mice; treatment starting at clinical score 3.0, 25 mg/kg intraperitoneal daily for 5 days, compared to PBS control, FIG. 2A",motor recovery
same,macrophage morphology in lesion at higher magnification,"[1]; 10 dpl, control lesion macrophages rounded amoeboid/foamy, FIG. 3F/3G","more ramified appearance, indicating reduced inflammatory activity"
same,iNOS labeling of macrophages at higher magnification,"[1]; 10 dpl, versus control lesion, FIG. 3F/3G",very little iNOS labeling
same,number of mature oligodendrocytes in lesions,"[1]; intraperitoneal injection 5-9 dpl, analysis at 10 dpl, compared to PBS control, FIG. 3A/3B",increased number of mature oligodendrocytes in lesions
same,"increase in oligodendrocytes (Olig2+ CC1+ cells), quantification","[1]; intraperitoneal injection 5-9 dpl, analysis at 10 dpl, versus PBS control, FIG. 3C, P<0.05",2 fold
same,pro-inflammatory iNOS expression in lesion (Iba1+iNOS+ microglia/macrophages),"[1]; intraperitoneal injection 5-9 dpl, analysis at 10 dpl, versus PBS treated lesion, FIG. 3D/3E",dramatically reduced pro-inflammatory iNOS expression
